What was measured:
[1] = tested on: Shank3 conditional mutant mice; experiment: Tactile PPI performance in Shank3 conditional mutant mice; format: in vivo; conditions: 30 minutes following administration of 2 mg/kg, versus saline
Experimental: (§1) Tactile PPI performance in Mecp2 or Shank3 conditional mutant mice, and their control littermates, 30 minutes following administration of either saline or 2 mg/kg compound 5.

[2] = tested on: Mecp2 conditional mutant mice; experiment: Tactile PPI performance in Mecp2 conditional mutant mice; format: in vivo; conditions: 30 minutes following administration of 2 mg/kg, versus saline
Experimental: as §1

[3] = tested on: ASD mouse models; conditions: range of ASD mouse models (Orefice et al., 2019, Cell 178, 867-886); cited from earlier work

SMILES	hairy skin hypersensitivity (tactile PPI performance) [1]	hairy skin hypersensitivity (tactile PPI performance) [2]	anxiety [3]
NC1C=C(C(=O)O)CCC1 (stereo not drawn) [compound 5, 3-aminocyclohex-1-ene-1-carboxylic acid]	reduces hairy skin hypersensitivity	reduces hairy skin hypersensitivity	
Nc1[nH]c(=O)nc2nc[nH]c12 [isoguanine]			useful to reduce
